Patent publication US20100298141A1, “SUBSTITUTED PYRIDINE N-OXIDE HERBICIDES” (E. I. DU PONT DE NEMOURS AND COMPANY, priority 2007, published 2010)

What was measured:
corn = test: Test A pre-/postemergence greenhouse test; type: in vivo, Zea mays; conditions: for Plant response rating, Corn: 0 to 100 scale where 0 is no effect and 100 is complete control; for Corn plant response rating: 0 to 100 scale
Method in brief: (§1)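 Pre: directed soil spray on seeded loam/sand. Post: foliar spray, plants 2–10 cm, 1–2 leaf stage, applied concurrently. Vehicle: non-phytotoxic solvent + surfactant. Greenhouse ~10 d; visual injury rating vs untreated controls.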

barnyardgrass [1] = test: Test C flooded paddy test; type: in vivo, Echinochloa crus-galli; conditions: Flood
Method in brief: (§2)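 Flooded 3 cm over soil; compound into paddy water; depth kept constant. Greenhouse 13–15 d.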

velvetleaf = test: Test A pre-/postemergence greenhouse test; type: in vivo, Abutilon theophrasti; conditions: for Plant response rating, Velvetleaf: 0 to 100 scale where 0 is no effect and 100 is complete control; for Velvetleaf plant response rating: 0 to 100 scale
Method in brief: as §1

rice = test: Test C flooded paddy test; type: in vivo, Oryza sativa; conditions: Flood
Method in brief: as §2

umbrella sedge = test: Test C flooded paddy test; type: in vivo, Cyperus difformis; conditions: Flood
Method in brief: as §2

crabgrass = test: Test A pre-/postemergence greenhouse test; type: in vivo, Digitaria sanguinalis; conditions: for Plant response rating, Crabgrass, Large: 0 to 100 scale where 0 is no effect and 100 is complete control; for Crabgrass, Large plant response rating: 0 to 100 scale
Method in brief: as §1

duck salad = test: Test C flooded paddy test; type: in vivo, Heteranthera limosa; conditions: Flood
Method in brief: as §2

wheat = test: Test A pre-/postemergence greenhouse test; type: in vivo, Triticum aestivum; conditions: for Plant response rating, Wheat: 0 to 100 scale where 0 is no effect and 100 is complete control; for Wheat plant response rating: 0 to 100 scale
Method in brief: as §1

redroot pigweed = test: Test A pre-/postemergence greenhouse test; type: in vivo, Amaranthus retroflexus; conditions: for Plant response rating, Pigweed: 0 to 100 scale where 0 is no effect and 100 is complete control; for Pigweed plant response rating: 0 to 100 scale
Method in brief: as §1

giant foxtail = test: Test A pre-/postemergence greenhouse test; type: in vivo, Setaria faberi; conditions: for Plant response rating, Foxtail, Giant: 0 to 100 scale where 0 is no effect and 100 is complete control; for Foxtail, Giant plant response rating: 0 to 100 scale
Method in brief: as §1

morningglory = test: Test A pre-/postemergence greenhouse test; type: in vivo, Ipomoea spp.; conditions: for Plant response rating, Morningglory: 0 to 100 scale where 0 is no effect and 100 is complete control; for Morningglory plant response rating: 0 to 100 scale
Method in brief: as §1

barnyardgrass [2] = test: Test A pre-/postemergence greenhouse test; type: in vivo, Echinochloa crus-galli; conditions: for Plant response rating, Barnyardgrass: 0 to 100 scale where 0 is no effect and 100 is complete control; for Barnyardgrass plant response rating: 0 to 100 scale
Method in brief: as §1

[3] = Postemergence, 500 g ai/ha, 0 is no effect, 100 is complete control
[4] = Preemergence, 125 g ai/ha, 0 no effect, 100 complete control
[5] = 62 g ai/ha, scale 0 to 100 (0 no effect, 100 complete control)
[6] = 250 g ai/ha, scale 0 to 100, 0 no effect, 100 complete control, 13 to 15 days

Structure (SMILES)	Plant response rating, Corn (corn; Postemergence, 125 g ai/ha)	Corn plant response rating (corn; [3])	Corn plant response rating (corn; [4])	Plant response rating, Corn (corn; Preemergence, 500 g ai/ha)	Plant response rating, Barnyardgrass (barnyardgrass [1]; [5])	Plant response rating, Barnyardgrass (barnyardgrass [1]; [6])	Plant response rating, Velvetleaf (velvetleaf; Postemergence, 125 g ai/ha)	Velvetleaf plant response rating (velvetleaf; [3])	Velvetleaf plant response rating (velvetleaf; [4])	Plant response rating, Velvetleaf (velvetleaf; Preemergence, 500 g ai/ha)	Plant response rating, Rice (rice; [5])	Plant response rating, Rice (rice; [6])	Plant response rating, Sedge, Umbrella (umbrella sedge; [5])	Plant response rating, Sedge, Umbrella (umbrella sedge; [6])	Plant response rating, Crabgrass, Large (crabgrass; Postemergence, 125 g ai/ha)	Crabgrass, Large plant response rating (crabgrass; [3])	Crabgrass, Large plant response rating (crabgrass; [4])	Plant response rating, Crabgrass, Large (crabgrass; Preemergence, 500 g ai/ha)	Plant response rating, Ducksalad (duck salad; [5])	Plant response rating, Ducksalad (duck salad; [6])	further results
Cn1nc(C(F)(F)F)c(C[S+]([O-])c2cc(Cl)cc[n+]2[O-])c1OCC(F)(F)F (stereo not shown) [Compound 68]	30	70	0	70	0	20	50	60	0	60	0	80	100	100	50	90	40	100	85	90	Plant response rating, Wheat (wheat; Postemergence, 125 g ai/ha): 50; Wheat plant response rating (wheat; [3]): 60; Wheat plant response rating (wheat; [4]): 30; Plant response rating, Wheat (wheat; Preemergence, 500 g ai/ha): 70; Plant response rating, Pigweed (redroot pigweed; Postemergence, 125 g ai/ha): 40; Pigweed plant response rating (redroot pigweed; [3]): 80; Pigweed plant response rating (redroot pigweed; [4]): 40; Plant response rating, Pigweed (redroot pigweed; Preemergence, 500 g ai/ha): 100; Plant response rating, Foxtail, Giant (giant foxtail; Postemergence, 125 g ai/ha): 70; Foxtail, Giant plant response rating (giant foxtail; [3]): 90; Foxtail, Giant plant response rating (giant foxtail; [4]): 70; Plant response rating, Foxtail, Giant (giant foxtail; Preemergence, 500 g ai/ha): 100; Plant response rating, Morningglory (morningglory; Postemergence, 125 g ai/ha): 10; Morningglory plant response rating (morningglory; [3]): 70; Morningglory plant response rating (morningglory; [4]): 30; Plant response rating, Morningglory (morningglory; Preemergence, 500 g ai/ha): 80; Plant response rating, Barnyardgrass (barnyardgrass [2]; Postemergence, 125 g ai/ha): 50; Barnyardgrass plant response rating (barnyardgrass [2]; [3]): 80; Barnyardgrass plant response rating (barnyardgrass [2]; [4]): 30; Plant response rating, Barnyardgrass (barnyardgrass [2]; Preemergence, 500 g ai/ha): 100
Cc1cc(S(=O)(=O)Cc2c(C(F)(F)F)nn(C)c2OCC(F)(F)F)[n+]([O-])cc1Cl [Compound 71]	0	30	20	20	20	20	20	50	0	30	30	60	0	30	30	70	50	100	0	70	Plant response rating, Wheat (wheat; Postemergence, 125 g ai/ha): 30; Wheat plant response rating (wheat; [3]): 50; Wheat plant response rating (wheat; [4]): 0; Plant response rating, Wheat (wheat; Preemergence, 500 g ai/ha): 40; Plant response rating, Pigweed (redroot pigweed; Postemergence, 125 g ai/ha): 50; Pigweed plant response rating (redroot pigweed; [3]): 70; Pigweed plant response rating (redroot pigweed; [4]): 70; Plant response rating, Pigweed (redroot pigweed; Preemergence, 500 g ai/ha): 100; Plant response rating, Foxtail, Giant (giant foxtail; Postemergence, 125 g ai/ha): 40; Foxtail, Giant plant response rating (giant foxtail; [3]): 80; Foxtail, Giant plant response rating (giant foxtail; [4]): 90; Plant response rating, Foxtail, Giant (giant foxtail; Preemergence, 500 g ai/ha): 100; Plant response rating, Morningglory (morningglory; Postemergence, 125 g ai/ha): 0; Morningglory plant response rating (morningglory; [3]): 30; Morningglory plant response rating (morningglory; [4]): 0; Plant response rating, Morningglory (morningglory; Preemergence, 500 g ai/ha): 10; Plant response rating, Barnyardgrass (barnyardgrass [2]; Postemergence, 125 g ai/ha): 40; Barnyardgrass plant response rating (barnyardgrass [2]; [3]): 80; Barnyardgrass plant response rating (barnyardgrass [2]; [4]): 40; Plant response rating, Barnyardgrass (barnyardgrass [2]; Preemergence, 500 g ai/ha): 90
Cn1nc(C(F)(F)F)c(CS(=O)(=O)c2cc(C(C)(C)C)cc[n+]2[O-])c1OCC(F)(F)F [Compound 72]	0	0	0	50	0	0	0	40	0	90	0	0	0	70	0	60	80	100	0	75	Plant response rating, Wheat (wheat; Postemergence, 125 g ai/ha): 0; Wheat plant response rating (wheat; [3]): 60; Wheat plant response rating (wheat; [4]): 30; Plant response rating, Wheat (wheat; Preemergence, 500 g ai/ha): 70; Plant response rating, Pigweed (redroot pigweed; Postemergence, 125 g ai/ha): 20; Pigweed plant response rating (redroot pigweed; [3]): 60; Pigweed plant response rating (redroot pigweed; [4]): 60; Plant response rating, Pigweed (redroot pigweed; Preemergence, 500 g ai/ha): 90; Plant response rating, Foxtail, Giant (giant foxtail; Postemergence, 125 g ai/ha): 10; Foxtail, Giant plant response rating (giant foxtail; [3]): 60; Foxtail, Giant plant response rating (giant foxtail; [4]): 100; Plant response rating, Foxtail, Giant (giant foxtail; Preemergence, 500 g ai/ha): 100; Plant response rating, Morningglory (morningglory; Postemergence, 125 g ai/ha): 0; Morningglory plant response rating (morningglory; [3]): 40; Morningglory plant response rating (morningglory; [4]): 0; Plant response rating, Morningglory (morningglory; Preemergence, 500 g ai/ha): 60; Plant response rating, Barnyardgrass (barnyardgrass [2]; Postemergence, 125 g ai/ha): 0; Barnyardgrass plant response rating (barnyardgrass [2]; [3]): 60; Barnyardgrass plant response rating (barnyardgrass [2]; [4]): 40; Plant response rating, Barnyardgrass (barnyardgrass [2]; Preemergence, 500 g ai/ha): 100
Cn1nc(OC(F)F)c(C[S+]([O-])c2cccc[n+]2[O-])c1C(F)(F)F (stereo not shown) [Compound 74]	0	60	0	80	15	30	20	70	0	60	10	10	0	50	40	80	60	90	70	65	Plant response rating, Wheat (wheat; Postemergence, 125 g ai/ha): 20; Wheat plant response rating (wheat; [3]): 60; Wheat plant response rating (wheat; [4]): 0; Plant response rating, Wheat (wheat; Preemergence, 500 g ai/ha): 90; Plant response rating, Pigweed (redroot pigweed; Postemergence, 125 g ai/ha): 50; Pigweed plant response rating (redroot pigweed; [3]): 60; Pigweed plant response rating (redroot pigweed; [4]): 60; Plant response rating, Pigweed (redroot pigweed; Preemergence, 500 g ai/ha): 70; Plant response rating, Foxtail, Giant (giant foxtail; Postemergence, 125 g ai/ha): 60; Foxtail, Giant plant response rating (giant foxtail; [3]): 90; Foxtail, Giant plant response rating (giant foxtail; [4]): 80; Plant response rating, Foxtail, Giant (giant foxtail; Preemergence, 500 g ai/ha): 90; Plant response rating, Morningglory (morningglory; Postemergence, 125 g ai/ha): 40; Morningglory plant response rating (morningglory; [3]): 80; Morningglory plant response rating (morningglory; [4]): 20; Plant response rating, Morningglory (morningglory; Preemergence, 500 g ai/ha): 90; Plant response rating, Barnyardgrass (barnyardgrass [2]; Postemergence, 125 g ai/ha): 50; Barnyardgrass plant response rating (barnyardgrass [2]; [3]): 80; Barnyardgrass plant response rating (barnyardgrass [2]; [4]): 70; Plant response rating, Barnyardgrass (barnyardgrass [2]; Preemergence, 500 g ai/ha): 90
